Activity calls are given as the source filed them. No cut-off for these calls is given here.
How the values were obtained:
[1] = system: Human immunodeficiency virus 1; test: Antiviral activity against HIV1; assay type: functional, organism-based
[2] = system: Human immunodeficiency virus 1; test: Binding affinity to HIV1 Nucleocapsid protein expressed in Escherichia coli BL21(DE3) pLysE at 1:1 ratio of compound/protein by 1H NMR spectroscopy

Row | SMILES | Activity [1] | Activity [2]
1 | Nc1nc(-c2cc(=O)[nH]c(N)n2)cc(=O)[nH]1 | inactive | 
2 | Nc1ncc(-c2cnc(N)[nH]c2=O)c(=O)[nH]1 | inactive | 
3 | Nc1nc(-c2c[nH]cn2)cc(=O)[nH]1 | inactive | Active
4 | Nc1ncc(-c2c[nH]cn2)c(=O)[nH]1 | inactive | 

— ChEMBL document CHEMBL4340568, “Synthesis of distal and proximal fleximer base analogues and evaluation in the nucleocapsid protein of HIV-1” (Bioorg Med Chem, 2019)
